Measured values published in the NIST ThermoML archive (doi:10.1021/je900428g).
Where “and” joins values, the source holds several entries; their conditions need not be identical. Identical values can stand only once. Numbers after ± are expanded uncertainties.

Details: Fluid (supercritical or subcritical phases), Spherical resonator

[Ar] [argon]
Details	speed of sound
250 K, 53.7 kPa	294.48 ± 0.5 m/s
250 K, 198 kPa	294.47 ± 0.5 m/s
250 K, 329.4 kPa	294.47 ± 0.5 m/s
250 K, 2365.8 kPa	294.8 ± 0.5 m/s
250 K, 4652.9 kPa	296.36 ± 0.5 m/s
250 K, 5823 kPa	297.76 ± 0.51 m/s
250.16 K, 48.7 kPa	294.57 ± 0.5 m/s
250.16 K, 48.8 kPa	294.58 ± 0.5 m/s
250.16 K, 192 kPa	294.57 ± 0.5 m/s
250.16 K, 309.1 kPa	294.57 ± 0.5 m/s
250.16 K, 447.7 kPa	294.56 ± 0.5 m/s and 294.57 ± 0.5 m/s
250.16 K, 598.6 kPa	294.56 ± 0.5 m/s and 294.57 ± 0.5 m/s
250.16 K, 732.5 kPa	294.56 ± 0.5 m/s and 294.58 ± 0.5 m/s
250.16 K, 875.6 kPa	294.58 ± 0.5 m/s
250.16 K, 1401.1 kPa	294.62 ± 0.5 m/s and 294.65 ± 0.5 m/s
260 K, 198.6 kPa	300.35 ± 0.51 m/s
260 K, 327.3 kPa	300.37 ± 0.51 m/s
260 K, 3507.5 kPa	301.95 ± 0.51 m/s
260 K, 4624 kPa	303.04 ± 0.51 m/s
260 K, 6602.3 kPa	305.84 ± 0.52 m/s
270 K, 53.2 kPa	306.06 ± 0.52 m/s
270 K, 200 kPa	306.11 ± 0.52 m/s
270 K, 325.8 kPa	306.15 ± 0.52 m/s
270 K, 467.2 kPa	306.2 ± 0.52 m/s
270 K, 3521.8 kPa	308.29 ± 0.52 m/s
270 K, 4675.9 kPa	309.59 ± 0.52 m/s
270 K, 5775.2 kPa	311.12 ± 0.53 m/s
275.1 K, 47.6 kPa	308.94 ± 0.52 m/s
275.1 K, 206.8 kPa	309.01 ± 0.52 m/s
275.1 K, 206.9 kPa	309.01 ± 0.52 m/s
275.1 K, 384.3 kPa	309.09 ± 0.52 m/s and 309.1 ± 0.52 m/s
275.1 K, 547.4 kPa	309.17 ± 0.52 m/s and 309.18 ± 0.52 m/s
275.1 K, 591.7 kPa	309.2 ± 0.52 m/s
275.1 K, 706.2 kPa	309.25 ± 0.52 m/s and 309.26 ± 0.52 m/s
275.1 K, 733.8 kPa	309.27 ± 0.52 m/s and 309.28 ± 0.52 m/s
275.1 K, 860.2 kPa	309.34 ± 0.52 m/s and 309.33 ± 0.52 m/s and 309.35 ± 0.52 m/s
275.1 K, 860.3 kPa	309.35 ± 0.52 m/s
275.1 K, 1389.2 kPa	309.65 ± 0.52 m/s
275.1 K, 1389.3 kPa	309.67 ± 0.52 m/s
280 K, 200.1 kPa	311.76 ± 0.53 m/s
280 K, 328.3 kPa	311.83 ± 0.53 m/s
280 K, 2342.8 kPa	313.26 ± 0.53 m/s
280 K, 4647.9 kPa	315.83 ± 0.53 m/s
280 K, 5767 kPa	317.48 ± 0.53 m/s
280 K, 6610.3 kPa	318.94 ± 0.54 m/s
280.12 K, 99.1 kPa	311.77 ± 0.53 m/s
280.12 K, 305.2 kPa	311.87 ± 0.53 m/s
280.12 K, 307.7 kPa	311.89 ± 0.53 m/s
280.12 K, 529.4 kPa	312 ± 0.53 m/s
280.12 K, 531.1 kPa	312.01 ± 0.53 m/s
280.12 K, 745.8 kPa	312.13 ± 0.53 m/s
280.12 K, 748 kPa	312.14 ± 0.53 m/s
280.12 K, 962.4 kPa	312.27 ± 0.53 m/s
280.12 K, 964.6 kPa	312.28 ± 0.53 m/s
280.12 K, 1184.9 kPa	312.42 ± 0.53 m/s
280.12 K, 1396.4 kPa	312.58 ± 0.53 m/s
280.12 K, 1396.8 kPa	312.57 ± 0.53 m/s
280.12 K, 1601.7 kPa	312.72 ± 0.53 m/s
280.12 K, 1834.4 kPa	312.91 ± 0.53 m/s
290 K, 53.6 kPa	317.2 ± 0.53 m/s
290 K, 196.4 kPa	317.3 ± 0.53 m/s
290 K, 1191.6 kPa	318.04 ± 0.53 m/s
290 K, 2325 kPa	319.08 ± 0.54 m/s
290 K, 3477.8 kPa	320.36 ± 0.54 m/s
300 K, 30.5 kPa	322.62 ± 0.54 m/s
300 K, 183.8 kPa	322.74 ± 0.54 m/s
300 K, 308.3 kPa	322.84 ± 0.54 m/s
300 K, 1180.9 kPa	323.61 ± 0.54 m/s
300 K, 2331.5 kPa	324.81 ± 0.55 m/s
300 K, 4657.3 kPa	327.88 ± 0.55 m/s
300 K, 5832.9 kPa	329.8 ± 0.55 m/s
300 K, 6595.8 kPa	331.21 ± 0.56 m/s
300.11 K, 100.3 kPa	322.73 ± 0.54 m/s
300.11 K, 244.7 kPa	322.85 ± 0.54 m/s
300.11 K, 395.4 kPa	322.98 ± 0.54 m/s
300.11 K, 528 kPa	323.11 ± 0.54 m/s
300.11 K, 558.1 kPa	323.12 ± 0.54 m/s
300.11 K, 701.6 kPa	323.24 ± 0.54 m/s
300.11 K, 739.1 kPa	323.3 ± 0.54 m/s
300.11 K, 868 kPa	323.39 ± 0.54 m/s
300.11 K, 963 kPa	323.5 ± 0.54 m/s
300.11 K, 1011.7 kPa	323.53 ± 0.54 m/s
300.11 K, 1166.1 kPa	323.69 ± 0.54 m/s
300.11 K, 1618 kPa	324.14 ± 0.54 m/s
300.11 K, 1836.4 kPa	324.37 ± 0.54 m/s
300.12 K, 48.1 kPa	322.69 ± 0.54 m/s
300.12 K, 193 kPa	322.81 ± 0.54 m/s
300.12 K, 308.1 kPa	322.91 ± 0.54 m/s
300.12 K, 445.5 kPa	323.02 ± 0.54 m/s and 323.03 ± 0.54 m/s
300.12 K, 729.9 kPa	323.27 ± 0.54 m/s and 323.28 ± 0.54 m/s
300.12 K, 868.1 kPa	323.39 ± 0.54 m/s
300.12 K, 868.2 kPa	323.4 ± 0.54 m/s and 323.41 ± 0.54 m/s
300.12 K, 1378.6 kPa	323.87 ± 0.54 m/s and 323.89 ± 0.54 m/s
310 K, 104.7 kPa	328.02 ± 0.55 m/s
310 K, 198.6 kPa	328.11 ± 0.55 m/s
310 K, 329.2 kPa	328.23 ± 0.55 m/s
310 K, 463.4 kPa	328.35 ± 0.55 m/s
310 K, 2330.1 kPa	330.38 ± 0.55 m/s
310 K, 4624.6 kPa	333.59 ± 0.56 m/s
310 K, 6595.8 kPa	337.02 ± 0.56 m/s
320 K, 102 kPa	333.28 ± 0.56 m/s
320 K, 180.5 kPa	333.35 ± 0.56 m/s
320 K, 311 kPa	333.48 ± 0.56 m/s
320 K, 450.5 kPa	333.63 ± 0.56 m/s
320 K, 576.4 kPa	333.77 ± 0.56 m/s and 333.79 ± 0.56 m/s
320 K, 1053.9 kPa	334.3 ± 0.56 m/s and 334.32 ± 0.56 m/s
320 K, 1550.8 kPa	334.89 ± 0.56 m/s and 334.9 ± 0.56 m/s
320 K, 2333.1 kPa	335.85 ± 0.56 m/s
320 K, 4482.2 kPa	339 ± 0.57 m/s
320 K, 5819.9 kPa	341.24 ± 0.57 m/s
325.05 K, 48.1 kPa	335.83 ± 0.56 m/s
325.05 K, 192.9 kPa	336 ± 0.56 m/s and 335.99 ± 0.56 m/s
325.05 K, 314.5 kPa	336.13 ± 0.56 m/s
325.05 K, 438.6 kPa	336.27 ± 0.56 m/s
325.05 K, 592.7 kPa	336.44 ± 0.56 m/s
325.05 K, 736 kPa	336.6 ± 0.56 m/s
325.05 K, 870.8 kPa	336.76 ± 0.56 m/s
325.05 K, 1376.5 kPa	337.36 ± 0.56 m/s
325.05 K, 1376.6 kPa	337.37 ± 0.56 m/s
325.05 K, 2721.4 kPa	339.14 ± 0.57 m/s
349.87 K, 48.9 kPa	348.43 ± 0.58 m/s and 348.44 ± 0.58 m/s
349.87 K, 182.8 kPa	348.62 ± 0.58 m/s
349.87 K, 182.9 kPa	348.61 ± 0.58 m/s
349.87 K, 307.3 kPa	348.77 ± 0.58 m/s and 348.78 ± 0.58 m/s
349.87 K, 447 kPa	348.95 ± 0.58 m/s and 348.97 ± 0.58 m/s
349.87 K, 594.5 kPa	349.14 ± 0.58 m/s
349.87 K, 726.7 kPa	349.32 ± 0.58 m/s and 349.34 ± 0.58 m/s
349.87 K, 864.5 kPa	349.5 ± 0.58 m/s
349.87 K, 864.6 kPa	349.52 ± 0.58 m/s
349.87 K, 1397.7 kPa	350.24 ± 0.58 m/s and 350.26 ± 0.58 m/s
349.87 K, 2711.2 kPa	352.19 ± 0.59 m/s
